PubChem BioAssay AID1918991 (Molecular Pharmacology Branch, DTP, NCI, 2023)

Test system: 186277-243-T-J2-PDC complex spheroid growth
Experiment: Anticancer human tumor 186277-243-T-J2-PDC patient-derived colon adenocarcinoma cell line growth inhibition [AhR]
Conditions: for IC50: curve of first compound; for viability, T/C: stronger effect = lower value
In short: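 Agents were dosed in half-log steps down from roughly clinical Cmax, or from 10 microM where Cmax was unknown, alone and with AhR antagonists. Read-out: percent test/control growth of tumor spheroids containing HUVEC and MSC stromal cells.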

[1] = second compound 0.1 µM, first compound 0.0316 µM
[2] = second compound 0.1 µM, first compound 0.1 µM
[3] = second compound 0.1 µM, first compound 0.316 µM
[4] = second compound 0.1 µM, first compound 1 µM
[5] = second compound 0.316 µM, first compound 0.0316 µM
[6] = second compound 0.316 µM, first compound 0.1 µM
[7] = second compound 0.316 µM, first compound 0.316 µM
[8] = second compound 0.316 µM, first compound 1 µM
[9] = second compound 1 µM, first compound 0.0316 µM
[10] = second compound 1 µM, first compound 0.1 µM
[11] = second compound 1 µM, first compound 0.316 µM
[12] = second compound 1 µM, first compound 1 µM
[13] = second compound 3.16 µM, first compound 0.0316 µM
[14] = second compound 3.16 µM, first compound 0.1 µM
[15] = second compound 3.16 µM, first compound 0.316 µM
[16] = second compound 3.16 µM, first compound 1 µM
[17] = second compound 10 µM, first compound 0.0316 µM
[18] = second compound 10 µM, first compound 0.1 µM
[19] = second compound 10 µM, first compound 0.316 µM
[20] = second compound 10 µM, first compound 1 µM
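Also: spheroids exposed to compounds for seven days before the viability read.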
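For viability, T/C in this document: luminescent signal used as a stand-in for viable cell amount; 100% = DMSO vehicle control wells.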

Row | SMILES | IC50 (second compound 0.1 µM) | IC50 (second compound 0.316 µM) | IC50 (second compound 1 µM) | IC50 (second compound 3.16 µM) | IC50 (second compound 10 µM) | viability, T/C [1] | viability, T/C [2] | viability, T/C [3] | viability, T/C [4] | viability, T/C [5] | viability, T/C [6] | viability, T/C [7] | viability, T/C [8] | viability, T/C [9] | viability, T/C [10] | viability, T/C [11] | viability, T/C [12] | viability, T/C [13] | viability, T/C [14] | viability, T/C [15] | also measured
1 | COc1cccc2c1C(=O)c1c(O)c3c(c(O)c1C2=O)CC(O)(C(=O)CO)CC3OC1CC(N)C(O)C(C)O1 (stereo not given) + Cc1ccccc1N=Nc1ccc(NC(=O)c2ccnn2C)c(C)c1 | 456 nM | 446 nM | 487 nM | 463 nM | 440 nM | 158% | 147% | 71% | 4.6% | 161% | 138% | 70% | 4.18% | 161% | 136% | 77.1% | 4.8% | 152% | 133% | 72.9% | viability, T/C (second compound 0.1 µM, first compound 3.16 µM): 0.4%; viability, T/C (second compound 0.1 µM, first compound 10 µM): 0.61%; viability, T/C (second compound 0.316 µM, first compound 3.16 µM): 0.3%; viability, T/C (second compound 0.316 µM, first compound 10 µM): 1.25%; viability, T/C (second compound 1 µM, first compound 3.16 µM): 0.42%; viability, T/C (second compound 1 µM, first compound 10 µM): 0.91%; viability, T/C [16]: 3.91%; viability, T/C (second compound 3.16 µM, first compound 3.16 µM): 0.08%; viability, T/C (second compound 3.16 µM, first compound 10 µM): 1.27%; viability, T/C [17]: 131%; viability, T/C [18]: 120%; viability, T/C [19]: 68.9%; viability, T/C [20]: 2.85%; viability, T/C (second compound 10 µM, first compound 3.16 µM): 0.25%; viability, T/C (second compound 10 µM, first compound 10 µM): 0.52%
2 | Nc1ncn(C2CC(O)C(CO)O2)c(=O)n1 (stereo not given) + Cc1ccccc1N=Nc1ccc(NC(=O)c2ccnn2C)c(C)c1 | > 1000 nM | > 1000 nM | > 1000 nM | > 1000 nM | > 1000 nM | 105% | 112% | 103% | 143% | 108% | 115% | 120% | 144% | 102% | 128% | 119% | 144% | 101% | 105% | 113% | viability, T/C (second compound 0.1 µM, first compound 0.00316 µM): 115%; viability, T/C (second compound 0.1 µM, first compound 0.01 µM): 108%; viability, T/C (second compound 0.316 µM, first compound 0.00316 µM): 118%; viability, T/C (second compound 0.316 µM, first compound 0.01 µM): 96.8%; viability, T/C (second compound 1 µM, first compound 0.00316 µM): 100%; viability, T/C (second compound 1 µM, first compound 0.01 µM): 102%; viability, T/C (second compound 3.16 µM, first compound 0.00316 µM): 103%; viability, T/C (second compound 3.16 µM, first compound 0.01 µM): 128%; viability, T/C [16]: 122%; viability, T/C (second compound 10 µM, first compound 0.00316 µM): 90.2%; viability, T/C (second compound 10 µM, first compound 0.01 µM): 97.2%; viability, T/C [17]: 103%; viability, T/C [18]: 109%; viability, T/C [19]: 104%; viability, T/C [20]: 103%
